Source: article PMC12439480, “Dimeric CCK2R radiotheranostic tracers synergize with mTOR inhibition for enhanced tumor therapy” (Theranostics, 2025)
Numbered stars: 1 amine (or outer) side, 2 acyl side, 3 side chain; on linkers, the order of the positions; unused ones are H or OH. Square brackets hold non-standard residues; d marks the D form. Side chains are listed from the residue outwards. Peptide text beside a SMILES is read from it. * marks the point of attachment. DOTA = O=C(O)CN1CCN(CC(=O)O)CCN(CC(=O)*)CCN(CC(=O)O)CC1; d(γGlu) = O=C(O)[C@@H](CCC(=O)[*:2])N[*:1]; 1Nal = N[C@@H](Cc1cccc2ccccc12)C(=O)O; NMeNle = CCCC[C@H](NC)C(=O)O; PEG4 = NCCOCCOCCOCCOCCC(=O)O

Assays:
AR42J tumor-bearing mice [1] = experiment: In vivo therapeutic study (tumor volume, survival, body weight); parameters: species or system BALB/c nude mice
Source text: When the tumor volume reached approximately 100 mm^3, the AR42J tumor-bearing mice were randomly divided into four treatment groups (n = 8/group).
Tumor volumes and body weights were monitored every two days. The following humane endpoints were established as follows: tumor volume exceeding 1500 mm^3, weight loss greater than 15%, or observable signs of pain or distress. Mice meeting one of these criteria were euthanized.

AR42J tumor-bearing mice [2] = experiment: Toxicity studies (blood count, blood biochemistry, histopathology)
Description: On day 12 post-treatment, the tumor tissues were processed and subjected to scRNA-seq and immunohistochemical (IHC) analysis (see Supplementary Methods, Section S4). […] Toxicity studies were conducted when the mice reached one of the predefined endpoints (Supplementary Methods, Section S6). […]
Section S6: Toxicity Studies
Blood samples were collected retro-orbitally using a glass capillary tube when mice reached one of the predefined endpoints. The samples were then centrifuged at 6,000 rpm for 10 minutes (Centrifuge 5417R, Eppendorf SE, Enfield, CT, USA), and the supernatant was transferred into a preventive care profile plus rotor for analysis of RBC, WBC, PLT, ALT, AST, ALP, BUN, and CREA. Sample analysis was performed

GSTK1 = experiment: Western blot of GSTK1 expression; format: cell-based, rat; details: cultured AR42J cells, 24 h
Description: pathway analysis, and Reactome pathway analysis. GO enrichment analysis was conducted using clusterProfiler (v4.0.5). KEGG pathway enrichment was analyzed using clusterProfiler, focusing on pathways relevant to radiotherapy- related detoxification, including glutathione metabolism and cytochrome P450- mediated metabolism of xenobiotics. Reactome pathway analysis was performed using […]
to radiosensitivity regulation. […]
protease and phosphatase inhibitors. Total protein (20 μ g per sample) was separated […]
ABclonal, Cat. No. A5226). After three washes with TBST, membranes were […]
temperature. Protein bands were visualized using an enhanced chemiluminescence detection system (CLINX, ChemiScope 6200).
Section S6: Toxicity Studies […]
mice reached one of the predefined endpoints. The samples were then centrifuged at […]
RBC, WBC, PLT, ALT, AST, ALP, BUN, and CREA. Sample analysis was performed

[3] = parameters: species or system mice; details: mouse, in vivo, 24 h
Description: In vitro stability was evaluated by incubating ~37 kBq of each radiotracer in PBS or human serum at 37 °C (n = 3). […] To further assess the in vivo stability of [^177Lu]Lu-DOTA-CCK2R-dimer, mice (n = 3) were intravenously injected with 3.7 MBq of the radiotracer in 200 μL of saline. […] The radioactivity of the blood samples was measured using a γ-counter, and the percent of injected dose per gram of tissue (%ID/g) was calculated. Additionally, we assessed the in vivo stability of [^177Lu]Lu-DOTA-CCK2R-dimer. Mice were intravenously injected with 7.4 MBq (≈ 240 pmol) of [^177Lu]Lu-DOTA-CCK2R-dimer (dissolved in 200 μL of saline; n = 3/group).

AR42J tumor-bearing mice [4] = experiment: Ex vivo biodistribution of 177Lu-labeled compound; parameters: species or system BALB/c nude mice; details: mouse, in vivo
Description: To evaluate the biodistribution of [^177Lu]Lu-DOTA-CCK2R-dimer, AR42J tumor-bearing mice received intravenous (i.v.) injections of 3.7 MBq (≈ 120 pmol) of [^177Lu]Lu-DOTA-CCK2R-dimer (dissolved in 200 μL of saline; n = 3/group), and Mice were sacrificed at 1, 4, 24, 48, 72, and 96 h post-injection. The tissues of interest were excised, weighed, and analyzed for radioactivity using a γ-counter.
All animal studies were approved by the Ethics Committee of Fudan University Shanghai Cancer Center (No. FUSCC-IACUC- S2023- 0003). Five-week-old female BALB/c nude mice were purchased from Shanghai SLAC Laboratory Animal
Company. To establish cell-derived xenograft (CDX) models, 1 × 10⁶ AR42J cells (100 μL) were subcutaneously inoculated into the right shoulder of each mouse. […]
Radioactivity levels were measured using a gamma counter, with decay correction applied based on the injection time. The percentage of injected dose per gram of tissue (%ID/g) was calculated for each time point. […]

[5] = post-treatment blood biochemistry

SMILES: CO[C@H]1C[C@@H]2CC[C@@H](C)[C@@](O)(O2)C(=O)C(=O)N2CCCC[C@H]2C(=O)O[C@H]([C@H](C)C[C@@H]2CC[C@@H](OCCO)[C@H](OC)C2)CC(=O)[C@H](C)/C=C(\C)[C@@H](O)[C@@H](OC)C(=O)[C@H](C)C[C@H](C)/C=C/C=C/C=C/1C [RAD001, everolimus, reference compound]
- median survival time (AR42J tumor-bearing mice [1]; Kaplan-Meier): 32 days
- average tumor volume (AR42J tumor-bearing mice [1]; day 10): 197.63 ± 40.92 mm³
- GRA (AR42J tumor-bearing mice [2]; post-treatment CBC): 23.97 ± 4.05%
- GRA# (AR42J tumor-bearing mice [2]; post-treatment CBC): 0.19 ± 0.05 109/L
- HCT (AR42J tumor-bearing mice [2]; post-treatment CBC): 25.73 ± 1.05%
- HGB (AR42J tumor-bearing mice [2]; post-treatment CBC): 178.57 ± 3.40 g/L
- LYM (AR42J tumor-bearing mice [2]; post-treatment CBC): 53.9 ± 5.47%
- LYM# (AR42J tumor-bearing mice [2]; post-treatment CBC): 0.41 ± 0.03 109/L
- MCH (AR42J tumor-bearing mice [2]; post-treatment CBC): 35.33 ± 0.87 pg
- MCHC (AR42J tumor-bearing mice [2]; post-treatment CBC): 693.67 ± 15.95 g/L
- MCV (AR42J tumor-bearing mice [2]; post-treatment CBC): 51.03 ± 0.57 fL
- MON (AR42J tumor-bearing mice [2]; post-treatment CBC): 22.13 ± 2.32%
- MON# (AR42J tumor-bearing mice [2]; post-treatment CBC): 0.17 ± 0.05 109/L
- MPV (AR42J tumor-bearing mice [2]; post-treatment CBC): 13.8 ± 0.35 fL
- P-LCR (AR42J tumor-bearing mice [2]; post-treatment CBC): 45.87 ± 1.03%
- PCT (AR42J tumor-bearing mice [2]; post-treatment CBC): 0.12 ± 0.01%
- PDW (AR42J tumor-bearing mice [2]; post-treatment CBC): 32.9 ± 0.3 fL
- PLT (AR42J tumor-bearing mice [2]; post-treatment CBC): 104.33 ± 2.52 109/L
- RBC (AR42J tumor-bearing mice [2]; post-treatment CBC): 5.05 ± 0.22 1012/L
- RDWCV (AR42J tumor-bearing mice [2]; post-treatment CBC): 11.23 ± 0.15%
- RDWSD (AR42J tumor-bearing mice [2]; post-treatment CBC): 23.33 ± 1.10 fL
- WBC (AR42J tumor-bearing mice [2]; post-treatment CBC): 7.67 ± 1.15 109/L
- ALP (AR42J tumor-bearing mice [2]; [5]): 150.68 ± 32.99 U/L
- ALT (AR42J tumor-bearing mice [2]; [5]): 43.73 ± 11.08 U/L
- AST (AR42J tumor-bearing mice [2]; [5]): 109.76 ± 13.94 U/L
- UA (AR42J tumor-bearing mice [2]; [5]): 140.92 ± 41.88 µmol/L
- UREA (AR42J tumor-bearing mice [2]; [5]): 3.49 ± 1.30 mmol/L
- GSTK1 expression (Western blot) (GSTK1): lower in the mTOR group than in the Veh group

SMILES: CCCC[C@@H](C(=O)N[C@@H](CC(=O)O)C(=O)N[C@@H](Cc1cccc2ccccc12)C(N)=O)N(C)C(=O)[C@H](Cc1c[nH]c2ccccc12)NC(=O)CCOCCOCCOCCOCCNC(=O)CC[C@@H](NC(=O)CC[C@H](NC(=O)CN1CCN(CC(=O)O)CCN(CC(=O)O)CCN(CC(=O)O)CC1)C(=O)N[C@H](CCC(=O)NCCOCCOCCOCCOCCC(=O)N[C@@H](Cc1c[nH]c2ccccc12)C(=O)N(C)[C@@H](CCCC)C(=O)N[C@@H](CC(=O)O)C(=O)N[C@@H](Cc1cccc2ccccc12)C(N)=O)C(=O)O)C(=O)O [[177Lu]Lu-DOTA-CCK2R-dimer] [metal not drawn] ({DOTA}-E([d(γGlu)-PEG4-Trp-NMeNle-Asp-1Nal-NH2])[d(γGlu)][PEG4]W[NMeNle]D[1Nal]-NH2)
- compound remaining intact in urine (radiochemical purity) [3]: more than 96%
- Tumor-to-Muscle ratio (T/M) (AR42J tumor-bearing mice [4]): 90.85
- ALP (AR42J tumor-bearing mice [2]; mouse, in vivo): 135.99 ± 24.61 U/L
- ALT (AR42J tumor-bearing mice [2]; mouse, in vivo): 44.93 ± 6.41 U/L
- AST (AR42J tumor-bearing mice [2]; mouse, in vivo): 87.94 ± 5.64 U/L
- GRA (AR42J tumor-bearing mice [2]; mouse, in vivo): 28.7 ± 8.16%
- GRA# (AR42J tumor-bearing mice [2]; mouse, in vivo): 0.20 ± 0.07 109/L
- HCT (AR42J tumor-bearing mice [2]; mouse, in vivo): 19.2 ± 5.20%
- HGB (AR42J tumor-bearing mice [2]; mouse, in vivo): 151.67 ± 19.64 g/L
- LYM (AR42J tumor-bearing mice [2]; mouse, in vivo): 52.27 ± 2.74%
- LYM# (AR42J tumor-bearing mice [2]; mouse, in vivo): 0.38 ± 0.14 109/L
- MCH (AR42J tumor-bearing mice [2]; mouse, in vivo): 41.83 ± 6.37 pg
- MCHC (AR42J tumor-bearing mice [2]; mouse, in vivo): 714 ± 42.04 g/L
- MCV (AR42J tumor-bearing mice [2]; mouse, in vivo): 51.63 ± 0.81 fL
- MON (AR42J tumor-bearing mice [2]; mouse, in vivo): 19.03 ± 9.18%
- MON# (AR42J tumor-bearing mice [2]; mouse, in vivo): 0.15 ± 0.13 109/L
- P-LCR (AR42J tumor-bearing mice [2]; mouse, in vivo): 35.87 ± 5.49%
- PCT (AR42J tumor-bearing mice [2]; mouse, in vivo): 0.16 ± 0.04%
- PDW (AR42J tumor-bearing mice [2]; mouse, in vivo): 28.67 ± 2.04 fL
- PLT (AR42J tumor-bearing mice [2]; mouse, in vivo): 116 ± 13.08 109/L
- RBC (AR42J tumor-bearing mice [2]; mouse, in vivo): 4.72 ± 0.81 1012/L
- RDWCV (AR42J tumor-bearing mice [2]; mouse, in vivo): 10.77 ± 0.40%
- RDWSD (AR42J tumor-bearing mice [2]; mouse, in vivo): 22.33 ± 1.15 fL
- UA (AR42J tumor-bearing mice [2]; mouse, in vivo): 126.33 ± 13.85 µmol/L
- UREA (AR42J tumor-bearing mice [2]; mouse, in vivo): 3.25 ± 0.56 mmol/L
- WBC (AR42J tumor-bearing mice [2]; mouse, in vivo): 7.0 ± 2.65 109/L
- MPV (AR42J tumor-bearing mice [2]; post-treatment CBC): 12.2 ± 0.61 fL
